Key:
Type in all cases: cell-based
JAK1 = target: T1, JAK1 (Homo sapiens, UniProt P23458); assay: Western blot assay, JAK1 protein degradation; details: MHH-CALL-4 cells, vehicle control = 100%
T1 construct: endogenous in cells; host or cells: MHH-CALL-4
Protocol: (§1) Western blot assay: MHH-CALL-4 Cells were washed twice with ice-cold PBS and lysed in RIPA lysis buffer (Sigma) freshly supplemented with Halt™ Protease Inhibitor Cocktail (ThermoFisher) for 15 minutes on ice. The cell pellet was removed by centrifugation at 13,000 g at 4° C. for 15 minutes. Protein concentration was measured by BCA assay (Thermo Fisher Scientific). Proteins were denatured in NuPAGE LDS 4× sample buffer supplemented with reducing agents (Invitrogen). Typically, 10-20 μg of total protein was loaded per lane on a 4%-12% NUPAGE Bis-Tris gradient gel (Invitrogen) and analyzed by standard immunoblotting and imaged using Li—COR Odyssey CLx (LI-COR Biotechnology, Lincoln, NE). To access the protein degradation, the signal of target protein was normalized by the signal of ACBT and the signal of vehicle control was set as 100%. Primary antibodies used were: JAK1 (Cell Signaling #3332S), JAK2 (#3230S), JAK3 (#8827S), TYK2 (#9312S), GSPT1 (#14980S), CRBN (#71810S), IKZF1 (Santa Cruz Biotechnology, SC-398265) and ACBT (Santa Cruz Biotechnology, SC-47778).

MHH-CALL-4 cells = assay: Cytotoxicity assay (resazurin, 72 hours); design: AUC: unit not given beside the values; details: for EC50: MHHCALL4, resazurin; for AUC: area under the dose-response curve
Protocol: Cytotoxicity assay: MHH-CALL-4 cells were maintained in RPMI1640 medium (Invitrogen) supplemented with 10% FBS (Hyclone), Penicillin/Streptomycin (100 units/mL) and Glutamine (100 μM). 2×10^5 cells were seeded in 100 μl medium/well in 96 well assay plates (Corning 3603). Assays were performed in triplicate; compounds to be screened were added to assay plates from DMSO stock solutions by pin transfer using 50SS pins (V&P Scientific). The assay plates incubated at 37° C. in 5% CO2 for 72 hours. Cells were then incubated for four hours with resazurin (Sigma) solution and read on a Synergy HT plate reader (Biotek, Winooski, VT). High-throughput assay data was analyzed using our in-house Robust Interpretation of Screening Experiments (RISE) application written in Pipeline Pilot (Biovia, v. 17.2.0) and the R program (R Core Team, 2013). All the AUC (area under the dose-response curve) per compound calculated from its dose response curve by RISE protocol. Selected data were plotted and analyzed by GraphPad Prism software v7 using non-linear regression curve fitting.

GSPT1 = target: T2, GSPT1 (Homo sapiens, UniProt P15170); assay: Western blot assay, GSPT1 neosubstrate degradation; details: MHHCALL4; 100 nM, 24 h; MHH-CALL-4 cells; vehicle control = 100%
T2 construct: endogenous in cells; host or cells: MHH-CALL-4
T2 sequence (P15170 whole entry): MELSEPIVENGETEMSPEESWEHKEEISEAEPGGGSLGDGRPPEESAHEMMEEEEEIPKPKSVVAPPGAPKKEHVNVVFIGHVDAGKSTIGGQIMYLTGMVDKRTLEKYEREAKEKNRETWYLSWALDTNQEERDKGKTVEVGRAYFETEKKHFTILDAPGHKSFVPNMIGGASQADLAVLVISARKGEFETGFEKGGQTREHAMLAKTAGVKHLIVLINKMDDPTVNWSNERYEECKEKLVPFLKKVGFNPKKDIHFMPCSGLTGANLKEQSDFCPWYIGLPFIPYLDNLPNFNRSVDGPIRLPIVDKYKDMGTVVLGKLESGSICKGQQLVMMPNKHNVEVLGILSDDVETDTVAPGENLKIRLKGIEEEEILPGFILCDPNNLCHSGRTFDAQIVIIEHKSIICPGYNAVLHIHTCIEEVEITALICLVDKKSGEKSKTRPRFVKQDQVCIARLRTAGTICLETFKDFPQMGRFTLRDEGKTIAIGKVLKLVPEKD
Protocol: as §1

JAK2 = assay: Western blot assay, JAK2 protein degradation; details: MHH-CALL-4 cells, vehicle control = 100%
Protocol: as §1

JAK3 = target: T3, JAK3 (Homo sapiens, UniProt P52333); assay: Western blot assay, JAK3 protein degradation; details: MHHCALL4; 100 nM, 24 h; MHH-CALL-4 cells; vehicle control = 100%; read-out: Target Protein Degradation (% remaining at 100 nM, 24 h) JAK3
T3 construct: endogenous in cells; host or cells: MHH-CALL-4
T3 sequence (P52333 1-1124): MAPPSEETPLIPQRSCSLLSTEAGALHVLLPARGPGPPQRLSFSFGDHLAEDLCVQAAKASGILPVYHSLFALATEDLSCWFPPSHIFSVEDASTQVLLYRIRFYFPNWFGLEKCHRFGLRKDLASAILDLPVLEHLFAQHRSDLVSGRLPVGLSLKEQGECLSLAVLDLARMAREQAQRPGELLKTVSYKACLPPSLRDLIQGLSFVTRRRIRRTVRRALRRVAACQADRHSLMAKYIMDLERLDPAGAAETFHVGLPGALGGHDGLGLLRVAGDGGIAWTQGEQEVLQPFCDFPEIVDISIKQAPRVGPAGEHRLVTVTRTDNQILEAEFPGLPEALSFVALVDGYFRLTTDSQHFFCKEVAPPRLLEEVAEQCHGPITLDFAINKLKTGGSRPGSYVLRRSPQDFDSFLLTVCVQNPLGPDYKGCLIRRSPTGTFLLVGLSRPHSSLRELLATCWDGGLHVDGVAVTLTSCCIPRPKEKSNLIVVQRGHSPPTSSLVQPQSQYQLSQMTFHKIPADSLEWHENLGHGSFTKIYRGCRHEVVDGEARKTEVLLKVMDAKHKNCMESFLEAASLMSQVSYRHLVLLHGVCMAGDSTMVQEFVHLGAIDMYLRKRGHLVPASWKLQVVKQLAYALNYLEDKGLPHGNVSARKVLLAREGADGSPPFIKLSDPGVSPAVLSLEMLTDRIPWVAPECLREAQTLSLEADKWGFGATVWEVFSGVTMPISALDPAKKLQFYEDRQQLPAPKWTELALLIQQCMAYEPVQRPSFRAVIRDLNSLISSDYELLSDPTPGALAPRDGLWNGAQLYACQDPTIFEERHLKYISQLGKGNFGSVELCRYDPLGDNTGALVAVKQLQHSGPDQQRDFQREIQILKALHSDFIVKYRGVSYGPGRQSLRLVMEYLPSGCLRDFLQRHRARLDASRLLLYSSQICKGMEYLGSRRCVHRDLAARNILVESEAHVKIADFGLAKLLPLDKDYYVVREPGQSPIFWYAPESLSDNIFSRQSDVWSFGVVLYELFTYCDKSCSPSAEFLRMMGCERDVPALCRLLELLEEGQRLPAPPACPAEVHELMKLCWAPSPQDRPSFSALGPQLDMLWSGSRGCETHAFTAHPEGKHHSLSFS
Protocol: as §1

T1 sequence (P23458 whole entry): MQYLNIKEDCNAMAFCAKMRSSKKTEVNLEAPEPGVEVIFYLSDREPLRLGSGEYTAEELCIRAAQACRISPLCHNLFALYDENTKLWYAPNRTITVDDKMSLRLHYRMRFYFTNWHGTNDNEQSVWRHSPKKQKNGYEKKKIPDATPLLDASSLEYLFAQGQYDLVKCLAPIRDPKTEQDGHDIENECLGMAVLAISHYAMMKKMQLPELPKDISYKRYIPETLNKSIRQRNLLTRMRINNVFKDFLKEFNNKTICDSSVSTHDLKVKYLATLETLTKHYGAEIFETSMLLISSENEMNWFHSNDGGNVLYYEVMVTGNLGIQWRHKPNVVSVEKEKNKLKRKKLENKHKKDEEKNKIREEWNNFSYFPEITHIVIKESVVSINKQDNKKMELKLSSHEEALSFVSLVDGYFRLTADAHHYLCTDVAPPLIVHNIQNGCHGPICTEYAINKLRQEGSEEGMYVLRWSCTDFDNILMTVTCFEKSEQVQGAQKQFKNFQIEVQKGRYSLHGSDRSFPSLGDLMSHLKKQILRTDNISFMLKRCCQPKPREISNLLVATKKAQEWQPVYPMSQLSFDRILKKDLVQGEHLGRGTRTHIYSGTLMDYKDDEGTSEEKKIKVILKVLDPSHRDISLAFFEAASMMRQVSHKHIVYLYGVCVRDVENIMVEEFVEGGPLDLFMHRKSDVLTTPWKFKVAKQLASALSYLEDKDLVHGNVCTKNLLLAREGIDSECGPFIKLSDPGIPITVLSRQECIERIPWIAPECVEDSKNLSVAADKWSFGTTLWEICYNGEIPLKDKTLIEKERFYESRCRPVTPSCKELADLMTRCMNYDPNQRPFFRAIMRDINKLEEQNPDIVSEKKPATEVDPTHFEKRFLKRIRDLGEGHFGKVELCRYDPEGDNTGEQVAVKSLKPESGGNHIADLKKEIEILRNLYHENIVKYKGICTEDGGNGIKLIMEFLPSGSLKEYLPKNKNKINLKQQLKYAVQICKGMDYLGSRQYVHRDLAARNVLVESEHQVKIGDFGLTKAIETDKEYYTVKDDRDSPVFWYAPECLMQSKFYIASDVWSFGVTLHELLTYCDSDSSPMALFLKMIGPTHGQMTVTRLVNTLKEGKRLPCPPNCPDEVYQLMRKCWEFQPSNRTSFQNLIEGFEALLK

Row | Target Protein Degradation (% remaining at 100 nM, 24 h) JAK1 (JAK1) [% remaining] | remaining activity at 0.1 µM (GSPT1) [%] | remaining activity at 0.1 µM (JAK3) [%] | SMILES | EC50 (MHH-CALL-4 cells) [nM] | AUC (MHH-CALL-4 cells) | Target Protein Degradation (% remaining at 100 nM, 24 h) JAK2 (JAK2) [% remaining]
1 | 90 | 74 | 69 | CCS(=O)(=O)N1CC(CC#N)(n2cc(-c3nc(Nc4ccc(C(=O)NCCCCCCCNc5cccc(C6CCC(=O)NC6=O)c5)cc4)nc4[nH]ccc34)cn2)C1 (stereo not drawn) [Compound 34] | 31 | 210 | 71
2 | 118 | 94 | 63 | N#CC[C@H](C1CCCC1)n1cc(-c2nc(Nc3ccc(C(=O)NCCCCOc4ccc(C5CCC(=O)NC5=O)cc4)cc3)nc3[nH]ccc23)cn1 (stereo partly drawn) [Compound 36] | 5.4 | 129 | 32
3 | 126 | 84 | 53 | CCCn1cc(-c2nc(Nc3ccc(C(=O)NCCN4CCN(c5ccc6c(c5)C(=O)N(C5CCC(=O)NC5=O)C6=O)CC4)cc3)nc3[nH]ccc23)cn1 (stereo not drawn) [Compound 39, N-(2-(4-(2-(2,6-dioxopiperidin-3-yl)-1,3-dioxoisoindolin-5-yl)piperazin-1-yl)ethyl)-4-((4-(1-propyl-1H-pyrazol-4-yl)-7H-pyrrolo[2,3-d]pyrimidin-2-yl)amino)benzamide] | 33.1 | 221 | 61
4 | 114 | 88 | 56 | CCS(=O)(=O)N1CC(CC#N)(n2cc(-c3nc(Nc4ccc(C(=O)NCCN5CCN(c6cccc(C7CCC(=O)NC7=O)c6)CC5)cc4)nc4[nH]ccc34)cn2)C1 (stereo not drawn) [Compound 40, 4-((4-(1-(3-(cyanomethyl)-1-(ethylsulfonyl)azetidin-3-yl)-1H-pyrazol-4-yl)-7H-pyrrolo[2,3-d]pyrimidin-2-yl)amino)-N-(2-(4-(3-(2,6-dioxopiperidin-3-yl)phenyl)piperazin-1-yl)ethyl)benzamide] | 1.9 | 139 | 36
5 | 128 | 76 | 71 | CCS(=O)(=O)N1CC(CC#N)(n2cc(-c3nc(Nc4ccc(C(=O)NCCCN5CCN(c6cccc(C7CCC(=O)NC7=O)c6)CC5)cc4)nc4[nH]ccc34)cn2)C1 (stereo not drawn) [Compound 42, 4-((4-(1-(3-(cyanomethyl)-1-(ethylsulfonyl)azetidin-3-yl)-1H-pyrazol-4-yl)-7H-pyrrolo[2,3-d]pyrimidin-2-yl)amino)-N-(3-(4-(3-(2,6-dioxopiperidin-3-yl)phenyl)piperazin-1-yl)propyl)benzamide] | 836 | 139 | 48

Further lines, the molecule ahead of its results:

Row | SMILES | Target Protein Degradation (% remaining at 100 nM, 24 h) JAK1 (JAK1) [% remaining] | remaining activity at 0.1 µM (GSPT1) [%] | remaining activity at 0.1 µM (JAK3) [%] | EC50 (MHH-CALL-4 cells) [nM] | AUC (MHH-CALL-4 cells) | Target Protein Degradation (% remaining at 100 nM, 24 h) JAK2 (JAK2) [% remaining]
6 | N#CC[C@@H](C1CCCC1)n1cc(-c2nc(Nc3ccc(C(=O)NCCCN4CCN(c5ccc6c(c5)C(=O)N(C5CCC(=O)NC5=O)C6=O)CC4)cc3)nc3[nH]ccc23)cn1 (stereo partly drawn) [Compound 23] | 145 | 155 | 109 | 30.9 | 79 | 67
7 | CCS(=O)(=O)C1CC(CC#N)(n2cc(-c3nc(Nc4ccc(C(=O)N5CCC(c6ccc7c(c6)C(=O)N(C6CCC(=O)NC6=O)C7=O)CC5)cc4)nc4[nH]ccc34)cn2)C1 (stereo not drawn) [Compound 27] | 107 | 118 | 92 | 289 | 143 | 68
8 | CCS(=O)(=O)N1CC(CC#N)(n2cc(-c3nc(Nc4ccc(C(=O)NCCCN5CCC(c6ccc7c(c6)CN(C6CCC(=O)NC6=O)C7=O)CC5)cc4)nc4[nH]ccc34)cn2)C1 (stereo not drawn) [Compound 28] | 112 | 127 | 97 | 16.8 | 223.00 | 83
9 | CCS(=O)(=O)C1CC(CC#N)(n2cc(-c3nc(Nc4ccc(C(=O)NC5CCN(c6ccc7c(c6)C(=O)N(C6CCC(=O)NC6=O)C7=O)CC5)cc4)nc4[nH]ccc34)cn2)C1 (stereo not drawn) [Compound 29] | 64 | 51 | 62 | 4.3 | 262 | 14
10 | CCS(=O)(=O)C1CC(CC#N)(n2cc(-c3nc(Nc4ccc(C(=O)NC5CCN(c6cccc7c6C(=O)N(C6CCC(=O)NC6=O)C7=O)CC5)cc4)nc4[nH]ccc34)cn2)C1 (stereo not drawn) [Compound 30] | 105 | 140 | 77 | 0.3 | 215.00 | 88
11 | CCS(=O)(=O)N1CC(CC#N)(n2cc(-c3nc(Nc4ccc(C(=O)NCC5CCN(c6ccc7c(c6)C(=O)N(C6CCC(=O)NC6=O)C7=O)CC5)cc4)nc4[nH]ccc34)cn2)C1 (stereo not drawn) [Compound 31] | 58 | 61 | 54 | 2.1 | 260 | 18
12 | CCS(=O)(=O)N1CC(CC#N)(n2cc(-c3nc(Nc4ccc(C(=O)NCCC5CCN(c6ccc7c(c6)C(=O)N(C6CCC(=O)NC6=O)C7=O)CC5)cc4)nc4[nH]ccc34)cn2)C1 (stereo not drawn) [Compound 32] | 69 | 46 | 56 | 1.3 | 251 | 21
13 | CCS(=O)(=O)N1CC(CC#N)(n2cc(-c3nc(Nc4ccc(C(=O)NCCCNC(=O)COc5cccc(C6CCC(=O)NC6=O)c5)cc4)nc4[nH]ccc34)cn2)C1 (stereo not drawn) [Compound 33] | 83 | 89 | 71 | 0.7 | 185 | 74
